According to paper PMC5847526, “Inhibition of neuronal FLT3 receptor tyrosine kinase alleviates peripheral neuropathic pain in mice” (Nature Communications, 2018):

Assays:
Test in all cases: biochemical
Parameters in all cases: ExpresS Diversity kinase profile (Eurofins Cerep P10), per cent inhibition
Conditions in all cases: read-out: Inhibition of reference binding (Table 4)
[1] = target: EGFR kinase (Homo sapiens, UniProt P00533)
[2] = target: c-Met kinase (Homo sapiens, UniProt P08581)
[3] = target: PLK1 (Homo sapiens, UniProt P53350)
Sequence of PLK1 (P53350 whole entry): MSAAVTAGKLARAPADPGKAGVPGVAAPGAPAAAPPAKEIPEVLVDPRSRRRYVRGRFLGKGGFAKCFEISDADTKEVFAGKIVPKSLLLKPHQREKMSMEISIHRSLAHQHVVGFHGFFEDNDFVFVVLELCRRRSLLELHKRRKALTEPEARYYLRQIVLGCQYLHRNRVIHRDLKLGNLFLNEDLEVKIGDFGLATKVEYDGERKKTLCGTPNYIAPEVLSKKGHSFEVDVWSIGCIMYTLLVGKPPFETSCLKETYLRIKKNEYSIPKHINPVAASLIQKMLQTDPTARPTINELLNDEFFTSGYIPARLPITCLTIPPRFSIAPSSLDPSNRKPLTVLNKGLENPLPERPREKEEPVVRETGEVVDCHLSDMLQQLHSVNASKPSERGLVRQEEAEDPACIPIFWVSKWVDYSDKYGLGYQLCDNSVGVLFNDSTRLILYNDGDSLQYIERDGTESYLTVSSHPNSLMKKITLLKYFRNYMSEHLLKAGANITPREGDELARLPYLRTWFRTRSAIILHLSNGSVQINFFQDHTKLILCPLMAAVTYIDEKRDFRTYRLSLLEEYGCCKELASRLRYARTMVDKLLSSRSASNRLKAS

[4] = target: KDR (Homo sapiens, UniProt P35968)
[5] = target: T1, CHK2 (Homo sapiens, UniProt O96017)
T1 construct: gene CHEK2

[6] = target: T2, SIK (Homo sapiens, UniProt P57059)
T2 construct: gene SIK1
T2 sequence (P57059 whole entry): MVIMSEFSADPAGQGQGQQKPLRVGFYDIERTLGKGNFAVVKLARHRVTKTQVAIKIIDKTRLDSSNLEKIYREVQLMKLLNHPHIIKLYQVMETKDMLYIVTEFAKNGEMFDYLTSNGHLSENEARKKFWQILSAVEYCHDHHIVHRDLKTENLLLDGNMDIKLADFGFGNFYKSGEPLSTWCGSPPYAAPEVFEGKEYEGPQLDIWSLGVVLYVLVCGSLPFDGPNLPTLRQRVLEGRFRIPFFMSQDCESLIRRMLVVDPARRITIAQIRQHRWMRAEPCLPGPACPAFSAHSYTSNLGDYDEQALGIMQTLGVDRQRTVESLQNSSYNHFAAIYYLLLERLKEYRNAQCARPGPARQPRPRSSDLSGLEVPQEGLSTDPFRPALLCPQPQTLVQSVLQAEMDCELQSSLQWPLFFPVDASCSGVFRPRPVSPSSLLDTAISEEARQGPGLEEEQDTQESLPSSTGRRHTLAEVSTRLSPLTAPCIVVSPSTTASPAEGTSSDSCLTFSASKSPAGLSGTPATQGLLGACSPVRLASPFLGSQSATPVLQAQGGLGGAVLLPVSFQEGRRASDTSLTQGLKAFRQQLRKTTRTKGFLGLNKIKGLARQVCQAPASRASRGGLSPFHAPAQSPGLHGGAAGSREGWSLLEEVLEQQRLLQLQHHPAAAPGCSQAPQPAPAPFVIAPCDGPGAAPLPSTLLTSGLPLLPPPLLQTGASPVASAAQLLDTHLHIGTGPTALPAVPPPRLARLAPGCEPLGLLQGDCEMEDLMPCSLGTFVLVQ

[7] = target: T3, GSK3β (Homo sapiens, UniProt P49841)
T3 construct: gene GSK3B

[8] = target: T4, IKKα (Homo sapiens, UniProt O15111)
T4 construct: gene CHUK
T4 sequence (O15111 whole entry): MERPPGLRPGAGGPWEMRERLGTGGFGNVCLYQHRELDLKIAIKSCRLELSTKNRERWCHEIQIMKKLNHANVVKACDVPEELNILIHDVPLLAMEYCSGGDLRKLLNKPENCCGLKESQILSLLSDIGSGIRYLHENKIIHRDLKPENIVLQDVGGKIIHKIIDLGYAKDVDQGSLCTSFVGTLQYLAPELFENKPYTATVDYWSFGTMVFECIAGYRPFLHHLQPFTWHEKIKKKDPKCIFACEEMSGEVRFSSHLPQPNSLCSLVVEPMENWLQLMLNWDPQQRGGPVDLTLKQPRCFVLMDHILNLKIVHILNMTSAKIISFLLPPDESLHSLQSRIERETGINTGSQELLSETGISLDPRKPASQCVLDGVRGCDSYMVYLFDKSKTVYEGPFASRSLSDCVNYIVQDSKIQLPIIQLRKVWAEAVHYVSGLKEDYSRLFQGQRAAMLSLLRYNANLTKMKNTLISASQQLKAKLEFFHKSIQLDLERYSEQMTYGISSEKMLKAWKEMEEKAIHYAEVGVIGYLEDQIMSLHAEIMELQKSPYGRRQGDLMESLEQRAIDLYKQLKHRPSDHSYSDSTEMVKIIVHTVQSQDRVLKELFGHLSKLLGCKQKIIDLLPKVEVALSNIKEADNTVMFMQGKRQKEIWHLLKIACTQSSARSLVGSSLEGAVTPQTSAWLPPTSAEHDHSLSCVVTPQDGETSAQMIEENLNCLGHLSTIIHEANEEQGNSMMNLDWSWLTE

[9] = target: ROCK1 (Homo sapiens, UniProt Q13464)
[10] = target: T5, CHK1 (Homo sapiens, UniProt O14757)
T5 construct: gene CHEK1

[11] = target: T6, PDGFRβ (Homo sapiens, UniProt P09619)
T6 construct: gene PDGFRB

[12] = target: c-KIT (Homo sapiens, UniProt P10721)
[13] = target: FGFR2 kinase (Homo sapiens, UniProt P21802)
[14] = target: T7, RAF-1 kinase (Homo sapiens, UniProt P04049)
T7 construct: gene RAF1

[15] = target: SGK1 (Homo sapiens, UniProt O00141)
[16] = target: JAK3 (Homo sapiens, UniProt P52333)
[17] = target: T8, PKCbeta 2 (Homo sapiens, UniProt P05771)
T8 construct: gene PRKCB; isoform beta 2
T8 sequence (P05771 whole entry, canonical isoform): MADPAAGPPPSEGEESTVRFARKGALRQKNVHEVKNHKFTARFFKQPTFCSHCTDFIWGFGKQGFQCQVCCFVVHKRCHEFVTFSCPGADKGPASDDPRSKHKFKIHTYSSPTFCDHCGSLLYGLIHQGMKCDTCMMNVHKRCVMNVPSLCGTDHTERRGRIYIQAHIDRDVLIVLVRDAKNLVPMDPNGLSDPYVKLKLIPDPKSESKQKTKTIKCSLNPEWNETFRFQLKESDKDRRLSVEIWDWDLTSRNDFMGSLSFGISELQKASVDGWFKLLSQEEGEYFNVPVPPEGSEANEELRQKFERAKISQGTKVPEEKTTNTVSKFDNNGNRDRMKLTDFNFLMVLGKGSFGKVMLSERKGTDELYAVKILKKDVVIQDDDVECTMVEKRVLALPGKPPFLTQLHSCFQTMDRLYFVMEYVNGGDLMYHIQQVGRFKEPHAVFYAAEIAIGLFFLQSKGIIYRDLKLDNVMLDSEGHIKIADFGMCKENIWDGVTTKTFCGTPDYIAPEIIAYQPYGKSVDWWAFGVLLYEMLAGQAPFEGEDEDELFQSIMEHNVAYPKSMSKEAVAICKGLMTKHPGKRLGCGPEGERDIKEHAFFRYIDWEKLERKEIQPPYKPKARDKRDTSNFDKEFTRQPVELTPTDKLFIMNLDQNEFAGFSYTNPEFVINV

[18] = target: T9, JNK1 (Homo sapiens, UniProt P45983)
T9 construct: gene MAPK8

[19] = target: T10, Abl kinase (Homo sapiens, UniProt P00519)
T10 construct: gene ABL1

[20] = target: FGFR3 kinase (Homo sapiens, UniProt P22607)
[21] = target: NEK2 (Homo sapiens, UniProt P51955)
[22] = target: Lck kinase (Homo sapiens, UniProt P06239)
[23] = target: CDC2/CDK1 (Homo sapiens, UniProt P06493)
[24] = target: FGFR1 kinase (Homo sapiens, UniProt P11362)
[25] = target: PAK2 (Homo sapiens, UniProt Q13177)
Sequence of PAK2 (Q13177 whole entry): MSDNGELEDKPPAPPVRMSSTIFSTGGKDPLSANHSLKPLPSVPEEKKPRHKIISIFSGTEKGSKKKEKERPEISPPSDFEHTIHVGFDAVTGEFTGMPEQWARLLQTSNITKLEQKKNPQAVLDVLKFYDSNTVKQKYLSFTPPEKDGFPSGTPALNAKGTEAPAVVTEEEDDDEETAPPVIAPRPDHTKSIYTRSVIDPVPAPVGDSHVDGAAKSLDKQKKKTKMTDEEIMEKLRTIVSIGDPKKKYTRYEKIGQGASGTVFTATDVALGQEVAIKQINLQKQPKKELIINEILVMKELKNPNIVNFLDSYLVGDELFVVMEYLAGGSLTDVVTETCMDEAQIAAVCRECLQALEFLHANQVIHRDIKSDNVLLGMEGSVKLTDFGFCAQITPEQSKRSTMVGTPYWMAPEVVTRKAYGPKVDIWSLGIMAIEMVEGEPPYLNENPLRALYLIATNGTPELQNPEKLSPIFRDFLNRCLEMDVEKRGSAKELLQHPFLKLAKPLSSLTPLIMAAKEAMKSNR

[26] = target: Akt1/PKBα (Homo sapiens, UniProt P31749)
[27] = target: TAOK2 (Homo sapiens, UniProt Q9UL54)
[28] = target: Src kinase (Homo sapiens, UniProt P12931)

Sequence of c-Met kinase (P08581 whole entry): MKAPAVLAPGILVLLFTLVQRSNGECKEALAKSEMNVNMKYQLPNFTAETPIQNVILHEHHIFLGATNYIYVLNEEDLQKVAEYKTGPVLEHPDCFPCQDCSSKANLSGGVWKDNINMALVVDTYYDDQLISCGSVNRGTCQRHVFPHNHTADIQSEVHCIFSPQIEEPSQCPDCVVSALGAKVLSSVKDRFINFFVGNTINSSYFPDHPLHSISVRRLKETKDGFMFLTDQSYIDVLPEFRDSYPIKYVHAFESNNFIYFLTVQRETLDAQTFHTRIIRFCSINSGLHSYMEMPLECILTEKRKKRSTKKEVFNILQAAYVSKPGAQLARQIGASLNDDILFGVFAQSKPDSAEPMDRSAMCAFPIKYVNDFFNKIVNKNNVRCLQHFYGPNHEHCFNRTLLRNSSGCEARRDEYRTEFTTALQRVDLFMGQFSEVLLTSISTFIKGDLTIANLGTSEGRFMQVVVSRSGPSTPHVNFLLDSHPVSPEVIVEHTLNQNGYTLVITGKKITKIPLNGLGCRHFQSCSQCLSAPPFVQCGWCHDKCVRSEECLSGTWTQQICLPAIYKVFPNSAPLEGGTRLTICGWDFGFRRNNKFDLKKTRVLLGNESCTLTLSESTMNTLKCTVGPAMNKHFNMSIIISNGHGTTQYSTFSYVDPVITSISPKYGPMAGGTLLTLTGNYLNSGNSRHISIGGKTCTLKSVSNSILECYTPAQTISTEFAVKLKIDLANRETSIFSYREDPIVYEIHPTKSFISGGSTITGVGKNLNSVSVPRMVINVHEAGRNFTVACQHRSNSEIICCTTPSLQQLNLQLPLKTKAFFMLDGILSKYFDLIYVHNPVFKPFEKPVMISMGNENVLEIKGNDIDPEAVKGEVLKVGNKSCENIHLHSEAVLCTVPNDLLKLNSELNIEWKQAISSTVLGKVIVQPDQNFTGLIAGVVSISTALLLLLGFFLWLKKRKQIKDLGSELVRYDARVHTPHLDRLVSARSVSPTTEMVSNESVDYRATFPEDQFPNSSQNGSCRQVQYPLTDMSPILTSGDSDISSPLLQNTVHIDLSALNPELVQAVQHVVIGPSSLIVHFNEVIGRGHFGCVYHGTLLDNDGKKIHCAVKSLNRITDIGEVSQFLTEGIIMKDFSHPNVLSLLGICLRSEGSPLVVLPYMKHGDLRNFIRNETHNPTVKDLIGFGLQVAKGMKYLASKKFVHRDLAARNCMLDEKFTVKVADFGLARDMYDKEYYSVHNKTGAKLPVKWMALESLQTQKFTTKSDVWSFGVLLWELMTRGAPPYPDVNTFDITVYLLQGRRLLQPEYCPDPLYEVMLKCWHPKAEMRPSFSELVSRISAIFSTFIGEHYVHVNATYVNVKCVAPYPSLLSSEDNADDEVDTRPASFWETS

For `O=C(Nc1cc(Cl)ccc1O)c1cccc(S(=O)(=O)N2CCCCC2)c1` [compound 66, BDT001], the inhibition at 10 µM [1] was 4%, the inhibition at 10 µM [2] was 0% and the inhibition at 10 µM [3] was -5%. It also gave an inhibition at 10 µM [4] of -6%, an inhibition at 10 µM [5] of 6% and an inhibition at 10 µM [6] of -6%. It also gave an inhibition at 10 µM [7] of 0%, an inhibition at 10 µM [8] of 20% and an inhibition at 10 µM [9] of 2%. For the same compound, the inhibition at 10 µM [10] was -10%, the inhibition at 10 µM [11] was -2% and the inhibition at 10 µM [12] was -1%. It also gave an inhibition at 10 µM [13] of -2%, an inhibition at 10 µM [14] of 11% and an inhibition at 10 µM [15] of 16%. For the same compound, the inhibition at 10 µM [16] was -3%, the inhibition at 10 µM [17] was 1% and the inhibition at 10 µM [18] was 32%. It also gave an inhibition at 10 µM [19] of 16%, an inhibition at 10 µM [20] of 33% and an inhibition at 10 µM [21] of -23%. It also gave an inhibition at 10 µM [22] of -14%, an inhibition at 10 µM [23] of 26% and an inhibition at 10 µM [24] of -7%. The inhibition at 10 µM [25] was -8%, the inhibition at 10 µM [26] was -13% and the inhibition at 10 µM [27] was 33%. For the same compound, the inhibition at 10 µM [28] was -4%.
